Patent US20250084041A1, “ANTIMICROBIAL COMPOUNDS AND METHODS” (Curza Global, LLC, priority 2021, published 2025)
Counter-ions that a name gives are not always drawn. Like-named read-outs stand apart in the source and are kept apart here.

Tests used:
[1] = system: P. aeruginosa (Pa); assay: Broth microdilution MIC, P. aeruginosa; assay type: cell-based; conditions: Pseudomonas aeruginosa, read-out: Pa + bicarb 25 (MIC)
Experimental: (§1) A certified BSL-2 laboratory was used for testing. Compounds were evaluated using the broth microdilution minimum inhibitory concentration (MIC) and minimum bactericidal concentration (MBC) assays defined by Clinical and Laboratory Standards Institute (CLSI) in the M26-A guideline against S. aureus (Sa), E. coli (Ec), K. pneumoniae (Kp), A. baumannii (Ab), E. faecalis (Ef) and P. aeruginosa (Pa).
(§2) MICs were determined using the Clinical Laboratory and Standards Institute (CLSI) Broth Microdilution Method with slight modification. Clinical and Laboratory Standards Institute (2012). “Methods for dilution antimicrobial susceptibility tests for bacteria that grow aerobically; approved standard, 9th ed. M07-A9. Clinical and Laboratory Standards Institute, Wayne, PA.” Serial two-fold dilutions of compounds are prepared in sterile clear round-bottom 96-well plates.
(§3) To prepare microdilution trays, two-fold dilutions of antimicrobial agent are prepared in growth medium: Cation-Adjusted Mueller-Hinton Broth (CAMHB), or CAMHB supplemented with sodium bicarbonate (25 mM final concentration prepared from a 1.0 M stock solution) or CAMHB supplemented with heat inactivated human serum (Fisher Cat. #BP2657100) 0-50% by adding 200 μL of the highest concentration to be tested (64 μg/mL, for example) in row A, mixing and transferring 100 μL from row A to 100 μL growth medium in row B, then repeating the mixing and transferring through row H of the 96-well plate, discarding the excess 100 μL remaining. This slight modification to the CLSI protocol enables evaluation of MICs for 3 compounds per plate in triplicate, albeit with only 8 compound dilutions (CLSI protocol enables 2 compounds in triplicate with 10 dilutions). Bacterial suspensions are added to a final concentration of 5×10^4 CFU/well by adding 5 μL of a 1:10 dilution of a 0.5 McFarland suspension (1×10^8 CFU/mL) for each bacterium evaluated. Bacterial suspensions were prepared using the growth method described by CLSI. Well-isolated colonies (3-5 from an agar plate) were selected using a sterile loop and used to inoculate a tube containing 4 mL of CAMHB. The cultures are incubated at 35±2° C. until it achieves or exceeds the turbidity of the 0.5 McFarland standard, determined by measuring A600nm (usually two to six hours). When growth exceeds a 0.5 McFarland standard, the turbidity is adjusted with broth to be equivalent to a 0.5 McFarland standard.

[2] = system: A. baumannii (Ab); assay: Broth microdilution MIC, A. baumannii; assay type: cell-based; conditions: Acinetobacter baumannii, read-out: Ab + bicarb 25 (MIC)
Experimental: as §1, §2, §3

[3] = target: Rabbit Reticulocyte Lysate; assay: Rabbit Reticulocyte Lysate: inhibition of eukaryotic protein synthesis (luciferase); assay type: biochemical; conditions: 30° C. 90 minutes, read-out: Retic. IC50
Experimental: Inhibition of eukaryotic protein synthesis was determined using the Rabbit Reticulocyte Lysate System, Nuclease-Treated from Promega (catalog #L-4960) with slight modifications to the manufacturer's protocol. Compounds were serial diluted in 0.5 mL microcentrifuge tubes by mixing and transferring 50 μL from the highest concentration to 50 μL of water, mixing and transferring 50 μL of this 2-fold dilution to 50 μL of water. This mixing and transferring was repeated so that there are a total of 8 tubes with serial dilutions of compound at 10× the desired screening concentration that are ultimately diluted to 1× by the addition of rabbit reticulocyte luciferase synthesis mixture. Serial dilutions of compounds were added ([…]) to wells in a black round bottom 96-well plate. Water (2.5 μL) was used as a “no inhibitor” control in 4 wells/plate. No RNA control reaction mixture ([…]; see below) was used as a control in 4 wells/plate for background luminescence. Rabbit reticulocyte luciferase synthesis mixture (22.5 μL; see below) was added to wells with compounds or water mixture and incubated at 30° C. for 90 minutes. Luciferase assay reagent (25 μL) was added with luminescence measured using a BioTek Synergy HTX plate reader. % Inhibition was determined relative to no inhibitor controls.
• 1,000 μL rabbit reticulocyte lysate • 5.7 μL Luciferase Control RNA (1 μg/μL) • 26 μL complete amino acid mixture • 395 μL water
• 70 μL rabbit reticulocyte lysate • 2 μL complete amino acid mixture • 28 μL water

[4] = system: E. faecalis (Ef); assay: Broth microdilution MIC, E. faecalis; assay type: cell-based; conditions: Enterococcus faecalis, read-out: Ef + bicarb 25 (MIC)
Experimental: as §1, §2, §3

[5] = system: E. coli S30 extract; assay: E. coli S30 extract: inhibition of bacterial protein synthesis (luciferase); assay type: biochemical; conditions: 37° C. 1 hour
Experimental: E. coli S30 extract: Inhibition of bacterial protein synthesis was determined using the E. coli S30 Extract System for Circular DNA (Promega catalog #L-2010) and Luciferase Assay Reagent (Promega catalog #E1500) with slight modifications to a published protocol. Fyfe, C., Sutcliffe, J. A. and Grossman, T. H. (2012) “Development and characterization of a Pseudomonas aeruginosa in vitro coupled transcription-translation assay system for evaluation of translation inhibitors” J. Microbiol. Methods 90(3), 256-261.
Compounds were serial diluted in 0.5 mL microcentrifuge tubes by mixing and transferring 50 μL from the highest concentration to 50 μL of water, mixing and transferring 50 μL of this 2-fold dilution to 50 μL of water. This mixing and transferring was repeated so that there are a total of 8 tubes with serial dilutions of compound at 10× the desired screening concentration that are ultimately diluted to 1× by the addition of S30 luciferase synthesis mixture. Serial dilutions of compounds were added (2 μL) to wells in a black round bottom 96-well plate. Water (2 μL) was used as a “no inhibitor” control in 4 wells/plate. No DNA control reaction mixture (20 μL; see below) was used as a control in 4 wells/plate for background luminescence. S30 luciferase synthesis mixture (18 μL; see below) was added to wells with compounds or water mixture and incubated at 37° C. for 1 hour. Reactions were stopped by transferring to 4° C. refrigerator for 5 minutes then 25 μL of luciferase activity mix was added. Luminescence was measured using a BioTek Synergy HTX plate reader. % Inhibition was determined relative to no inhibitor controls.
• 445 μL S30 extract, circular • 712 μL S30 Premix without amino acids • 4.45 μL pBESTluc™ DNA (1 μg/μL) • 78 μL complete amino acid mixture • 267 μL water
• 20 μL S30 extract, circular • 32 μL S30 Premix without amino acids • 7 μL complete amino acid mixture • 21 μL water

[6] = system: S. aureus (Sa); assay: Broth microdilution MIC, S. aureus; assay type: cell-based; conditions: Staphylococcus aureus, read-out: Sa + bicarb 25 (MIC)
Experimental: as §1, §2, §3

[7] = system: E. coli (Ec); assay: Broth microdilution MIC, E. coli; assay type: cell-based; conditions: Escherichia coli, read-out: E. coli + bicarb 25 (MIC)
Experimental: as §1, §2, §3

## CC1(N)CCN(CC2CC=C(n3ccc(NC(=O)N4CCN(C(=O)C(C)(C)N)CC4)nc3=O)CC2)CC1 (single isomer, unassigned) [Compound 37, 4-(2-Amino-2-methylpropanoyl)-N-(1-(4-((4-amino-4-methylpiperidin-1-yl)methyl)cyclohex-1-en-1-yl)-2-oxo-1,2-dihydropyrimidin-4-yl)piperazine-1-carboxamide hydrochloride salt]
[1]
  MIC: > 32 µg/mL
[2]
  MIC: > 32 µg/mL
[3]
  IC50: ≥ 1000 nM
[4]
  MIC: < 8 µg/mL
[5]
  IC50: < 500 nM
[6]
  MIC: < 8 µg/mL
[7]
  MIC: < 8 µg/mL

## CC(C)(N)C(=O)N1CCN(C(=O)Nc2ccn(C3=CCC(CN[C@H]4CC[C@H](N)CC4)CC3)c(=O)n2)CC1 (single isomer, unassigned) [Compound 39, trans-4-(2-Amino-2-methylpropanoyl)-N-(1-(4-(((4-aminocyclohexyl)amino)methyl)cyclohex-1-en-1-yl)-2-oxo-1,2-dihydropyrimidin-4-yl)piperazine-1-carboxamide hydrochloride salt]
[1]
  MIC: > 32 µg/mL
[2]
  MIC: > 32 µg/mL
[3]
  IC50: ≥ 1000 nM
[4]
  MIC: < 8 µg/mL
[5]
  IC50: < 500 nM
[6]
  MIC: < 8 µg/mL
[7]
  MIC: < 8 µg/mL

## CC(C)(N)C(=O)N1CCN(C(=O)Nc2ccn(C3=CCC(CN4CCCC(N)CC4)CC3)c(=O)n2)CC1 (single isomer, unassigned) [Compound 41, 4-(2-Amino-2-methylpropanoyl)-N-(1-(4-((4-aminoazepan-1-yl)methyl)cyclohex-1-en-1-yl)-2-oxo-1,2-dihydropyrimidin-4-yl)piperazine-1-carboxamide hydrochloride salt]
[1]
  MIC: > 32 µg/mL
[2]
  MIC: > 32 µg/mL
[3]
  IC50: ≥ 1000 nM
[4]
  MIC: < 8 µg/mL
[5]
  IC50: < 500 nM
[6]
  MIC: < 8 µg/mL
[7]
  MIC: < 8 µg/mL

## CC(C)(N)C(=O)N1CCN(C(=O)Nc2ccn(C3=CCC(CN4CC[C@H](CN)C4)CC3)c(=O)n2)CC1 (stereo in doubt) [Compound 23, (S)-4-(2-Amino-2-methylpropanoyl)-N-(1-(4-((3-(aminomethyl)pyrrolidin-1-yl)methyl)cyclohex-1-en-1-yl)-2-oxo-1,2-dihydropyrimidin-4-yl)piperazine-1-carboxamide hydrochloride salt]
[1]
  MIC: > 32 µg/mL
[2]
  MIC: > 32 µg/mL
[3]
  IC50: ≥ 1000 nM
[4]
  MIC: 8 to 32 µg/mL
[5]
  IC50: < 500 nM
[6]
  MIC: < 8 µg/mL
[7]
  MIC: < 8 µg/mL

## CC(C)(N)C(=O)N1CCN(C(=O)Nc2ccn(C3=CCC(CN4CC[C@@H](CN)C4)CC3)c(=O)n2)CC1 (stereo in doubt) [Compound 24, (R)-4-(2-Amino-2-methylpropanoyl)-N-(1-(4-((3-(aminomethyl)pyrrolidin-1-yl)methyl)cyclohex-1-en-1-yl)-2-oxo-1,2-dihydropyrimidin-4-yl)piperazine-1-carboxamide hydrochloride salt]
[1]
  MIC: > 32 µg/mL
[2]
  MIC: > 32 µg/mL
[3]
  IC50: ≥ 1000 nM
[4]
  MIC: > 32 µg/mL
[5]
  IC50: < 500 nM
[6]
  MIC: < 8 µg/mL
[7]
  MIC: < 8 µg/mL

## CC(C)(N)C(=O)N1CCN(C(=O)Nc2ccn(C3CCC(CN(CCF)C4CCC(N)CC4)CC3)c(=O)n2)CC1 (stereo in doubt) [Compound 48, trans-cis-4-(2-Amino-2-methylpropanoyl)-N-(1-(4-(((4-aminocyclohexyl)(2-fluoroethyl)amino)methyl)cyclohexyl)-2-oxo-1,2-dihydropyrimidin-4-yl)piperazine-1-carboxamide hydrochloride salt]
[1]
  MIC: > 32 µg/mL
[2]
  MIC: > 32 µg/mL
[3]
  IC50: ≥ 1000 nM
[4]
  MIC: 8 to 32 µg/mL
[5]
  IC50: < 500 nM
[6]
  MIC: 8 to 32 µg/mL
[7]
  MIC: 8 to 32 µg/mL

## CC(C)(N)C(=O)N1CCN(C(=O)Nc2ccn(C3=CCC(CN[C@H]4CC[C@H](N)CC4)CC3)c(=O)n2)CC1 (stereo partly drawn) [Compound 1, 4-(2-Amino-2-methylpropanoyl)-N-(1-(4-(((trans-4-aminocyclohexyl)amino)methyl)cyclohex-1-en-1-yl)-2-oxo-1,2-dihydropyrimidin-4-yl)piperazine-1-carboxamide hydrochloride salt]
[1]
  MIC: > 32 µg/mL
[2]
  MIC: > 32 µg/mL
[3]
  IC50: ≥ 1000 nM
[4]
  MIC: 8 to 32 µg/mL
[5]
  IC50: < 500 nM
[6]
  MIC: < 8 µg/mL
[7]
  MIC: < 8 µg/mL

## CC(C)(N)C(=O)N1CCN(C(=O)Nc2ccn(C3=CCC(CN4C[C@@H]5[C@@H](CN)[C@@H]5C4)CC3)c(=O)n2)CC1 (stereo partly drawn) [Compound 2, 4-(2-Amino-2-methylpropanoyl)-N-(1-(4-((exo-6-(aminomethyl)-3-azabicyclo[3.1.0]hexan-3-yl)methyl)cyclohex-1-en-1-yl)-2-oxo-1,2-dihydropyrimidin-4-yl)piperazine-1-carboxamide hydrochloride salt]
[1]; P. aeruginosa, CAMHB supplemented with sodium bicarbonate 25 mM
  MIC: > 32 µg/mL
[2]; A. baumannii, CAMHB supplemented with sodium bicarbonate 25 mM
  MIC: > 32 µg/mL
[3]
  IC50: ≥ 1000 nM
[4]; E. faecalis, CAMHB supplemented with sodium bicarbonate 25 mM
  MIC: < 8 µg/mL
[5]
  IC50: < 500 nM
[6]; S. aureus, CAMHB supplemented with sodium bicarbonate 25 mM
  MIC: < 8 µg/mL
[7]; E. coli, CAMHB supplemented with sodium bicarbonate 25 mM
  MIC: < 8 µg/mL

## CC(C)(N)C(=O)N1CCN(C(=O)Nc2ccn(C3=CCC(CN[C@H]4CC[C@H](N)C4)CC3)c(=O)n2)CC1 (stereo partly drawn) [Compound 3, 4-(2-Amino-2-methylpropanoyl)-N-(1-(4-((((1S,3S)-3-aminocyclopentyl)amino)methyl)cyclohex-1-en-1-yl)-2-oxo-1,2-dihydropyrimidin-4-yl)piperazine-1-carboxamide hydrochloride salt]
[1]
  MIC: > 32 µg/mL
[2]
  MIC: > 32 µg/mL
[3]
  IC50: ≥ 1000 nM
[4]
  MIC: > 32 µg/mL
[5]
  IC50: < 500 nM
[6]
  MIC: < 8 µg/mL
[7]
  MIC: < 8 µg/mL
